This passage reports IC50 and melting point results from publication PMC10669220, “In Vitro α-Glucosidase and α-Amylase Inhibition, Cytotoxicity and Free Radical Scavenging Profiling of the 6-Halogeno and Mixed 6,8-Dihalogenated 2-Aryl-4-methyl-1,2-dihydroquinazoline 3-Oxides” (Antioxidants, 2023).

The subject of series [1] is NO generated from nitric oxide synthase (NOS). Description: Inhibitory activity against NO generated from NOS (EnzyChrom kit). The conditions noted are these: mean ± SD, 1-50 µM. The class given is biochemical.
Series [2] addresses T1, α-Glucosidase type 1 from baker's yeast (Saccharomyces cerevisiae, UniProt P53341).
T1 construct: purchased Sigma Aldrich (Pty) Ltd. G5003
Description: biochemical. The note with it: IC50 α-Glucosidase, mean ± SD, triplicate; tested at 1, 5, 10, 25, 50 µM.

T1 sequence (P53341 whole entry): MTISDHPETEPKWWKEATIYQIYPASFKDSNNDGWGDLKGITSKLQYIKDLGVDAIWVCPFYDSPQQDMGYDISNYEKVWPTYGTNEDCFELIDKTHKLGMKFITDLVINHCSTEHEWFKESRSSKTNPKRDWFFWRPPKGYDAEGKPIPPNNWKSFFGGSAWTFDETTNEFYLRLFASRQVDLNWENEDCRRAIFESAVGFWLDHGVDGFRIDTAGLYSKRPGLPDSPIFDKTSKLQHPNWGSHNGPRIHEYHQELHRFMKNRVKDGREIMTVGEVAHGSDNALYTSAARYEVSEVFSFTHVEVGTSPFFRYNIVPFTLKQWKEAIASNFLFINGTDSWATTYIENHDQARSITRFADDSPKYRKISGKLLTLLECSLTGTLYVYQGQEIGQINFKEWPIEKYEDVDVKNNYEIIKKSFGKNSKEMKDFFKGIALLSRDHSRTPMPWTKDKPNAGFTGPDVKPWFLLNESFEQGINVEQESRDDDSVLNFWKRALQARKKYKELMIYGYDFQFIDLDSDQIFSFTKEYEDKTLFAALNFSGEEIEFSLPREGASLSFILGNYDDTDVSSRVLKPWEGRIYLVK

Broadly, the IC50 is the concentration needed to halve the response being measured. Read a high IC50 as weaker potency in that assay. One may read the melting point as the temperature of the solid-liquid transition. Compound `CC1=[N+]([O-])C(c2ccccc2)Nc2c(I)cc(Br)cc21` (stereo not drawn) [Compound 3i] returned a melting point of 162 to 164 °C. Moreover, 29.08 ± 0.004 µM corresponded to half-maximal inhibition in series [1] (IC50). Moreover, the IC50 in series [2] was determined as 1.01 ± 0.05 µM.
